Experimental data: patent US20230348418A1, “ISOINDOLINONE COMPOUNDS” (Monte Rosa Therapeutics, Inc., priority 2021, published 2023)
Read-outs that look alike come from different tables or passages of the source.

How the values were obtained:
GSPT1 [1] = target: T1, GSPT1 (Homo sapiens, UniProt P15170); assay: GSPT1 degradation in tumors of treated mice (FIG. 3B); assay type: in vivo, mouse; conditions: all three dose levels (1 mg/kg, 3 mg/kg, 6 mg/kg), compared to vehicle control
T1 construct: GSPT1 levels in tumors were determined by western blotting 6 hours after the third dose; from tissue; host or cells: NCI-H1155 (ATCC CRL-5818) xenograft tumours in female BALB/c nude mice
T1 sequence (P15170 whole entry): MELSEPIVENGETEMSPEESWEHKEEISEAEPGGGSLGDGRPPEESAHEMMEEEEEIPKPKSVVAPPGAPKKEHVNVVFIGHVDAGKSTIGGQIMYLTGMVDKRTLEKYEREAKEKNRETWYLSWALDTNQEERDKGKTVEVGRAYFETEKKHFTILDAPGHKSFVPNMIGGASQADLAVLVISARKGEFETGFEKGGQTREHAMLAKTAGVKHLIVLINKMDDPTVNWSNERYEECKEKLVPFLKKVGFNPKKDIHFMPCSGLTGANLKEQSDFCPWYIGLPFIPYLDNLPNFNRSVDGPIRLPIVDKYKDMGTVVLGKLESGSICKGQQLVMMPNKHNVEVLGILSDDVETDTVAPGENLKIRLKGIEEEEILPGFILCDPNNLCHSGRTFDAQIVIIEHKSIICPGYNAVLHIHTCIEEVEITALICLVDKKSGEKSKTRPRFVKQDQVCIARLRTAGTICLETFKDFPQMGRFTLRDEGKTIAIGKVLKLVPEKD
T1 sequence (Q96SW2 whole entry, further chain): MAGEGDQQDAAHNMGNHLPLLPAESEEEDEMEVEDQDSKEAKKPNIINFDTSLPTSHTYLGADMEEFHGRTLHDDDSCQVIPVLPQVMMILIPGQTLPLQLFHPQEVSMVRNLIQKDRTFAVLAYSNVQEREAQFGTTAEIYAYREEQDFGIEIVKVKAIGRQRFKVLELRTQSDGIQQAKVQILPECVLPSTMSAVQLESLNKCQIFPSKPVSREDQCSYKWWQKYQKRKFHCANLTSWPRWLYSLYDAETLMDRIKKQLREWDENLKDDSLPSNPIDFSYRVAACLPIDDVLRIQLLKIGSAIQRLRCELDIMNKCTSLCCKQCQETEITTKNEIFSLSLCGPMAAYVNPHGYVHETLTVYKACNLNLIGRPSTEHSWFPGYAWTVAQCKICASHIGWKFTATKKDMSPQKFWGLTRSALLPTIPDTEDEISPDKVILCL
T1 sequence (Q16531 2-1140 partner limits assumed): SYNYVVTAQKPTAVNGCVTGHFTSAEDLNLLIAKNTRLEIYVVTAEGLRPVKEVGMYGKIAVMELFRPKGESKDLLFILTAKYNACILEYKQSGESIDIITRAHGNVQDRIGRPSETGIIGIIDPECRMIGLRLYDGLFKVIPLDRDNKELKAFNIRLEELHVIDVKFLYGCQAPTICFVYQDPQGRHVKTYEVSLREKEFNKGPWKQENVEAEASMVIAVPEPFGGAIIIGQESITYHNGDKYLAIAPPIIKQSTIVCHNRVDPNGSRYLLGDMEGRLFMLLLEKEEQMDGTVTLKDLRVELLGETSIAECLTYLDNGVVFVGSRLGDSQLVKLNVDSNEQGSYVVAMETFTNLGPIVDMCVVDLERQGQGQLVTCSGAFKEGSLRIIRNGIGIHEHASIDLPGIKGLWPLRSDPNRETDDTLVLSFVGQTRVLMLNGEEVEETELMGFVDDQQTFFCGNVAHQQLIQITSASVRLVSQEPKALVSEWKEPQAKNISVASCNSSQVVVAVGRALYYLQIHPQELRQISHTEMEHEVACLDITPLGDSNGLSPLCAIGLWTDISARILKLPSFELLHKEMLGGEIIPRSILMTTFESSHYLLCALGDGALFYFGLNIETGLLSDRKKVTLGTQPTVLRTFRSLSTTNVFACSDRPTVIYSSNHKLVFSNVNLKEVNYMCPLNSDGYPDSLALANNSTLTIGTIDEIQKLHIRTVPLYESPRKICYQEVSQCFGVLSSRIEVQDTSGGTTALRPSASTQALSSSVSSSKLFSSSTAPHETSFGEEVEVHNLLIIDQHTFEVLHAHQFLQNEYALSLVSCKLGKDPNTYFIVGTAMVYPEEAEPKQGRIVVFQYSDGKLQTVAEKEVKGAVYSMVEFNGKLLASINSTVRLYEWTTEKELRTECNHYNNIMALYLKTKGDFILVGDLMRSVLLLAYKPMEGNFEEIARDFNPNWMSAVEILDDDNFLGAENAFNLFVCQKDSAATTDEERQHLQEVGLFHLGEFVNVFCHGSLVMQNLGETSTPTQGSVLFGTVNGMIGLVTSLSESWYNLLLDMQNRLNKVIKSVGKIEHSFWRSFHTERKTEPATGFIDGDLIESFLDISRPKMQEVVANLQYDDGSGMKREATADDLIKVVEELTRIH

NCI-H1155 = assay: N-Myc-driven mouse xenograft model, human cell line NCI-H1155 (FIG. 3A); assay type: in vivo
GSPT1 [2] = target: T2, GSPT1 (Homo sapiens, UniProt P15170+Q96SW2); assay: relative levels of GSPT1 versus concentration (FIG. 2B); assay type: cell-based; parameters: endogenous in cells; host or cells: MM1S (ATCC CRL-2974); conditions: cell line not named
T2 sequence (P15170 whole entry): as the sequence (P15170 whole entry) above
T2 sequence (Q96SW2 whole entry): as the sequence (Q96SW2 whole entry, further chain) above
T2 sequence (Q16531 2-1140 partner limits assumed): as the sequence (Q16531 2-1140 partner limits assumed) above
Experimental: (§1) GSPT1 was degraded by compound 10 after six hours of treatment in high N-Myc NCI-H1155 and ABC-1 cells with a DC50 of 3 nM and 22 nM, respectively (x-axys represents […]M concentration of compound 10; y-axis represents the viability in %).

ABC-1 = assay: viability of NSCLC cell line, high N-Myc (FIG. 2A); assay type: cell-based; conditions: ABC-1, high N-Myc; compared to low N-Myc EBC-1 and NCI-H2023
Experimental: as §1

[3] = target: T3, Full length wild-type cereblon CRBN (Homo sapiens, UniProt Q96SW2); assay: Fluorescence polarization (FP) assay, cereblon binding
T3 construct: Full length wild-type cereblon CRBN (80.0 nM, 10 μL) was incubated in assay buffer
T3 sequence (Q96SW2 whole entry): as the sequence (Q96SW2 whole entry, further chain) above
Method in brief: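 Full-length wild-type human CRBN (80.0 nM) was preincubated with compound for 30 min at room temperature in 20 mM HEPES pH 8.0, 150 NaCl, 0.5 mM TCEP and 0.05% Tween 20. A Cy5-type thalidomide-linked fluorescent probe was then added. The FP signal was normalized to the DMSO control to derive IC50.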

SALL4 = target: T4, SALL4 (Homo sapiens, UniProt Q9UJQ4); assay: SALL4 degradation in treated cells (FIG. 1A); assay type: cell-based; conditions: concentrations up to 30 µM
T4 construct: endogenous in cells
T4 sequence (Q96SW2 whole entry partner): as the sequence (Q96SW2 whole entry, further chain) above
T4 sequence (Q16531 2-1140 partner limits assumed): as the sequence (Q16531 2-1140 partner limits assumed) above
T4 sequence (Q9UJQ4 whole entry): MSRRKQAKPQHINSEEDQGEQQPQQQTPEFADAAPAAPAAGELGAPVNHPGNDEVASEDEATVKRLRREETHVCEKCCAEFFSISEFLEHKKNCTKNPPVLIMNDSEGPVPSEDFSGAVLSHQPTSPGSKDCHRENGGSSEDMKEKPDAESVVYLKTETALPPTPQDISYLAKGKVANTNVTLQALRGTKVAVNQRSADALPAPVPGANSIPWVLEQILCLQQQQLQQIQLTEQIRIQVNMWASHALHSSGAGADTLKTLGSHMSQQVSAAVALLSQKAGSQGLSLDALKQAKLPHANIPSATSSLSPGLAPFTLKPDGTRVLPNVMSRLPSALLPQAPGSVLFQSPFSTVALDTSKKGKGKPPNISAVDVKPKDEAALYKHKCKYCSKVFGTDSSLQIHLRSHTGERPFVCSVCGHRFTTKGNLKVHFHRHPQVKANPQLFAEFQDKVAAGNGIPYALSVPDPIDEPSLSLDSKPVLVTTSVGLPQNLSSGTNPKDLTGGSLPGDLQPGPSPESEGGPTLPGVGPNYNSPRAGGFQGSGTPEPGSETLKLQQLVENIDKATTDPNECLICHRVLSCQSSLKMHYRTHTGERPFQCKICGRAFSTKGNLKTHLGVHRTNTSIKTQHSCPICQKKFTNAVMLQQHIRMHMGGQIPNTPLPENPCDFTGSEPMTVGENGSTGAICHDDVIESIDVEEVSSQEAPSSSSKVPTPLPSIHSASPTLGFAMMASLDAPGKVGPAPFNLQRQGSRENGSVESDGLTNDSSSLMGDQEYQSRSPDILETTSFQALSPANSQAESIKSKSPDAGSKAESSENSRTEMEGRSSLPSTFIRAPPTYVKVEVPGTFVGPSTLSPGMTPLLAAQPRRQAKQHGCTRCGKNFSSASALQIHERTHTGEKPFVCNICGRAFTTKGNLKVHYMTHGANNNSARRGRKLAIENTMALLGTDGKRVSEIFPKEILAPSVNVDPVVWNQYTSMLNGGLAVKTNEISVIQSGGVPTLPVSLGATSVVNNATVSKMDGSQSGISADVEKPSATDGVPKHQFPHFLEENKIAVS

GSPT1 [4] = target: T2, GSPT1; assay: Quantitative proteomics analysis in ABC1 cells; assay type: cell-based; conditions: 100 nM, 6 hr
Experimental: Quantitative Proteomics Analysis: ABC1 cells were treated with either DMSO (2 replicates) or compound 10 at 100 nM (2 replicates) for 6 hr. Proteins were extracted with the PreOmics iST-NHS lysis buffer (#P.O.00030). The samples were then processed using the PreOmics kit following their recommended protocol with minor modifications. In brief, the proteins were reduced, alkylated and digested for 2 h at 37° C. The peptides were then labelled with TMT reagent (1:4; peptide:TMT label) (Thermo Fisher Scientific). After quenching, the peptides were purified, and the 16 samples were combined to a 1:1 ratio. […] Eluted TMT peptides were analyzed on an Orbitrap Eclipse mass spectrometer (Thermo Fisher Scientific). […] Precursors were fragmented by CID at a normalized collision energy (NCE) of 35% and analyzed in the ion trap. Following MS2, synchronous precursor selection (SPS) MS3 scans were collected by using high energy collision-induced dissociation (HCD) and fragments were analyzed using the Orbitrap (NCE 55%, AGC target 1×10^5, maximum injection time 120 ms, resolution 60,000). Protein identification and quantification were performed using Proteome Discoverer 2.4.0.305 with the SEQUEST algorithm and Uniprot human database (2021-01-29, 20614 protein sequences). […] Protein relative quantification was performed using an in-house developed java notebook. […]

Cc1ccc(NC(=O)OCc2ccc3c(c2)C(=O)N(C2CCC(=O)NC2=O)C3)cc1Cl (stereo not drawn) [Compound 10]
degradation of GSPT1 in tumors (GSPT1 [1]): complete degradation | tumor growth (tumor volume) (NCI-H1155; 1 mg/kg once daily, PO): tumor growth was suppressed for two weeks | tumor size (tumor volume) (NCI-H1155; 3 mg/kg once daily, PO): tumor size decreased, became undetectable by day eight and remained so until the end of the study at day 21 | tumor size (tumor volume) (NCI-H1155; 6 mg/kg PO, five days on and nine days off): tumor size decreased, became undetectable by day eight and remained so until the end of the study at day 21 | body weight (NCI-H1155; oral administration, NCI-H1155 xenograft): no body weight loss observed | tumor growth (tumor volume) (NCI-H1155; oral administration, NCI-H1155 xenograft, overall): tumor growth inhibition | GSPT1 degradation versus concentration (GSPT1 [2]): concentration dependent manner | sensitivity to treatment (viability in %) (ABC-1): highly sensitive | IC50 ([3]; bounds stated in the text lists b2059-b2061, read-out: IC50 value): < 1.7 µM | IC50 ([3]; cereblon binding, class code, read-out: rFP IC50): 1.1 to 1.7 µM | degradation of SALL4 (SALL4): no induction of degradation | Protein downregulation in mass spectrometry-based proteomics (FIG. 1B) (GSPT1 [4]): GSPT1 was the most statistically significant downregulated protein
